Laboratory results: patent US12427131B2, “Stimulators and/or activators of soluble guanylate cyclase (sGC) in combination with an inhibitor of neutral endopeptidase (NEP inhibitor) and/or an angiotensin AII antagonist and the use thereof” (BAYER PHARMA AKTIENGESELLSCHAFT, priority 2015, dated 2025)

Columns and labels:
conscious rats = assay: Radiotelemetric measurement of blood pressure and heart rate of conscious rats; assay type: in vivo, rat
Text: Radiotelemetric Measurement of Blood Pressure and Heart Rate of Conscious Rats
A commercially available telemetry system from Data Sciences International DSI, USA, was employed for the measurements on conscious rats (Wistar strain Unilever/WU or Spontaneous Hypertensive Rat/SHR) described below. The system consists of 3 main components: (1) implantable transmitters (PhysioTel® telemetry transmitter), (2) receivers (PhysioTel® receiver), which are linked via a multiplexer (DSI Data Exchange Matrix) to a (3) data acquisition computer. The telemetry system makes it possible to continuously record blood pressure, heart rate and body motion of conscious animals in their usual habitat.
The studies are conducted on adult female rats with a body weight of >200 g. After transmitter implantation, the experimental animals are housed singly in type III Makrolon® cages. They have free access to standard feed and water. The day/night rhythm in the test laboratory is set by changing the illumination of the room.
The telemetry transmitters used (e.g. PA-C40 HD-S10, DSI) are surgically implanted under aseptic conditions in the experimental animals at least 14 days before the first experimental use.
For the implantation, the fasted animals are anesthetized with isoflurane (IsoFlo®, Abbott, initiation 5%, maintenance 2%) and shaved and disinfected over a large area of their abdomens. After the abdominal cavity has been opened along the linea alba, the liquid-filled measuring catheter of the system is inserted into the descending aorta in the cranial direction above the bifurcation and fixed with tissue glue (Vetbond™, 3M). The transmitter housing is fixed intraperitoneally to the abdominal wall muscle, and the wound is closed layer by layer. Post-operatively, an antibiotic (Ursocyclin® 10%, 60 mg/kg s.c., 0.06 ml/100 g body weight, Serumwerk Bernburg AG, Germany) for infection prophylaxis and an analgesic (Rimadyl®, 4 mg/kg s.c., Pfizer, Germany) are administered.
Unless stated otherwise, the substances to be studied are administered orally to a group of animals in each case (n=6). In accordance with an administration volume of 2 ml/kg of body weight, the test substances are dissolved in suitable solvent mixtures. A solvent-treated group of animals is used as control.
The telemetry measuring system is configured for 24 animals.
Each of the instrumented rats living in the system is assigned a separate receiving antenna (RPC-1 Receiver, DSI). The implanted senders can be activated externally via an installed magnetic switch and are switched to transmission during the pre-run of the experiment. The signals emitted can be detected online by a data acquisition system (Dataquest™ A.R.T. for Windows, DSI or Ponemah, DSI) and processed accordingly.
In the standard procedure, the following are measured for 10-second periods in each case: (1) systolic blood pressure (SBP), (2) diastolic blood pressure (DBP), (3) mean arterial pressure (MAP), (4) heart rate (HR) and (5) activity (ACT). These parameters are measured over 24 hours after administration.
The acquisition of measurements is repeated under computer control at 5-minute intervals. The source data obtained as absolute values are corrected in the diagram with the currently measured barometric pressure (Ambient Pressure Reference Monitor, APR-1, DSI).
After the end of the experiment, the acquired individual data are sorted using the analysis software (Dataquest™ A.R.T. 4.1 Analysis or Ponemah, DSI). The 2 hour time point before substance administration is assumed as the blank value.
The data are smoothed over a presettable period by determination of the means (30 minute mean).

[1] = patients with heart failure, phase III; cited from earlier work
[2] = healthy subjects and hypertensive patients; cited from earlier work
[3] = compound of the formula (6) alone, oral 0.3 mg/kg
[4] = compound of the formula (29) alone, oral 3 mg/kg
[5] = compound of the formula (29) alone, oral 10 mg/kg

In the case of COC(=O)Nc1c(N)nc(-c2nn(Cc3ccccc3F)c3ncc(F)cc23)nc1N [formula (6), methyl {4,6-diamino-2-[5-fluoro-1-(2-fluorobenzyl)-1H-pyrazolo[3,4-b]pyridine-3-yl]pyrimidin-5-yl}carbamate], the “decrease in the mean arterial blood pressure” value (“decrease” below) (conscious rats; [3]) is reported as “ca. −10%”, the heart rate (conscious rats; [3]) is reported as “transient increase in heart rate” and the “hemodynamic effects (blood pressure, heart rate)” value (conscious rats; compound of the formula (6) alone, oral dose 0.1 mg/kg) is reported as “no hemodynamic effects”.
For C[C@H]([C@H](C(=O)Nc1cc(C(CC(=O)O)C2CC2)ccc1Cl)c1ccc(Cl)cc1)C(F)(F)F (stereo partly drawn) [formula (29), 3-(4-chloro-3-{[(2S,3R)-2-(4-chlorophenyl)-4,4,4-trifluoro-3-methylbutanoyl]amino}phenyl)-3-cyclopropylpropanoic acid], the heart rate (conscious rats; compound of the formula (29) alone, oral 1 mg/kg) was “reflex tachycardia”, the “decrease” value (conscious rats; [4]) was “ca. −10%” and the heart rate (conscious rats; [4]) was “associated reflex tachycardia”. The “decrease” value (conscious rats; [5]) was roughly 15% and the heart rate (conscious rats; [5]) was “associated reflex tachycardia”.
For “trisodium [3-((1S,3R)-1-biphenyl-4-ylmethyl-3-ethoxycarbonyl-1-butylcarbamoyl)propionate-(S)-3′-methyl-2′-(pentanoyl{2″-(tetrazol-5-ylate)biphenyl-4′-ylmethyl}amino)butyrate] hemipentahydrate [LCZ696]”, the “risk of death and hospitalization” value [1] is listed as “reduction in the risk of death and hospitalization”, the “ANP and cGMP” value [2] is listed as “increase in ANP and cGMP” and the renin and angiotensin [2] is listed as “compensatory increase in renin and angiotensin”.
